Results published in PMC5289647, “L-glutamine Induces Expression of Listeria monocytogenes Virulence Genes” (PLoS Pathogens, 2017).

How the values were obtained:
GlnPQ = target: T1, GlnPQ (Listeria monocytogenes, UniProt A0A0H3GES4); experiment: radiolabelled uptake by intact bacteria, rapid filtration; type: cell-based; details: PBS pH 7.4, 1.6 mM MgSO4, 1% glucose, 37 °C; labelled compound; mixed with unlabelled L-glutamine
T1 construct: gene LMRG_02270; native full-length ABC importer in L. monocytogenes cells; uptake compared with glnPQ deletion and complemented strains; glnP locus also printed as LMRG_02770 (apparent misprint)
T1 sequence (A0A0H3GES4 entry or part of it): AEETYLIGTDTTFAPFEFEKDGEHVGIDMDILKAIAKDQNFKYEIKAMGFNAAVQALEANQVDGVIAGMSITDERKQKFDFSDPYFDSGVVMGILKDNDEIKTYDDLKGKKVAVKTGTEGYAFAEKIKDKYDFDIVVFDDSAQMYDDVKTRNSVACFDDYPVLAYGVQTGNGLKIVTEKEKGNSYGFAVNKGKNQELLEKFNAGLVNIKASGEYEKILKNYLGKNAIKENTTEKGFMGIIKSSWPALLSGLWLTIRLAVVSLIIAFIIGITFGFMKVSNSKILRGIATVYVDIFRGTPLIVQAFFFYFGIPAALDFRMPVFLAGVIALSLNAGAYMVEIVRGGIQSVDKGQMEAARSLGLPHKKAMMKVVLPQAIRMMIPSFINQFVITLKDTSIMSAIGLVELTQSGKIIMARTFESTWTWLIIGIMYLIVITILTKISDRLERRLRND
T1 sequence (A0A0H3GF44 entry or part of it, further chain): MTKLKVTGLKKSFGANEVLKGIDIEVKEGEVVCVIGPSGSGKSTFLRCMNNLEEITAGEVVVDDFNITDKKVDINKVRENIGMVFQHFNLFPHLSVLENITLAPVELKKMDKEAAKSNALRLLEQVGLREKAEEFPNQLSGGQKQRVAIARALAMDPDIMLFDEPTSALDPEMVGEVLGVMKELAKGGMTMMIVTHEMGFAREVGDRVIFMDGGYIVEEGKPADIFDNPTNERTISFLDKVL

[1] = target: T2, SBP domain of LMRG_02270 (GlnPQ SBP; GlnP) (Listeria monocytogenes, UniProt A0A0H3GES4); experiment: isothermal titration calorimetry; type: binding
T2 construct: SBP domain only (residues 29-254), signal peptide (first 28 residues) and transmembrane domain removed; N-terminal His-tag (pET-19b), codon-optimised synthetic gene; E. coli BL21-Gold (DE3); locus also printed as LMRG_02770 (apparent misprint)
T2 sequence (A0A0H3GES4 entry or part of it): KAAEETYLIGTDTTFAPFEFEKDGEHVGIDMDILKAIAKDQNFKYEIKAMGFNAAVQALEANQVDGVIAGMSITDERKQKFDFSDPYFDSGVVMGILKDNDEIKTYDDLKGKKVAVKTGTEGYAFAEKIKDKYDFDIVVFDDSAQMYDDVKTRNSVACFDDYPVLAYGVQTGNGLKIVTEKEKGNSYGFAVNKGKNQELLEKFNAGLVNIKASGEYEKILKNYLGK

Compound	L-glutamine uptake (GlnPQ)	Kd [1] [µM]
NC(=O)CC[C@H](N)C(=O)O [3H L-glutamine]	the rapid uptake of L-glutamine measured in the transport experiments is indeed mediated by an active	
NC(=O)CC[C@H](N)C(=O)O [L-glutamine]		4.7
